Measured values published in patent US20110144205A1, “Blood Glutathione as a Biomarker for Screening Asymptomatic Patients at Risk for Heart Failure” (INSERM (Institut National de la Recherche Medicale), priority 2008, published 2011).

Assays:
[1] = tested on: cardiomyopathic mice with missense LMNA mutation; assay: Mouse model carrying a missense LMNA mutation and developing a dilated cardiomyopathy; assay type: in vivo; details: oral treatment, mouse model with missense LMNA mutation
[2] = tested on: cardiomyopathic mice with missense LMNA mutation; details: oral NAC treatment; cited from earlier work
[3] = tested on: mouse model of human hypertrophic cardiomyopathy; details: oral NAC treatment; cited from earlier work
[4] = tested on: postoperative atrial fibrillation; details: cited from earlier work
[5] = tested on: heart-failing hypertensive rats; details: oral NAC treatment; cited from earlier work

Structure (SMILES): CC(=O)N[C@@H](CS)C(=O)O [NAC, N-acetylcysteine]
- heart structure and function [1]: significantly improved heart structure and function
- cardiac structure and function [2]: improves cardiac structure and function
- established hypertrophy [3]: reverses established hypertrophy
- incidence of postoperative atrial fibrillation (AF) ([4]; intravenous infusion for 1 h before and 48 h after cardiac surgery, Ozaydin et al. 2008): decreased the incidence of postoperative atrial fibrillation
- post-operative atrial fibrillation ([4]; oral NAC treatment, patients): prevents post-operative atrial fibrillation
- cardiac structure and function [5]: improves cardiac structure and function
